The subject of series [1] is Mycobacterium tuberculosis. Description: Antimycobacterial activity against Mycobacterium tuberculosis H37Rv ATCC 27294 by microplate alamar blue assay. It is filed as functional.
Series [2] is described as follows: Cytotoxicity against mouse J774 cells assessed as cell viability at 100 ug/ml by MTT assay. It is filed as cell-based. As to conditions: read-out: Activity.
The nature of series [3]: Cytotoxicity against mouse J774 cells assessed as cell viability at 10 ug/ml by MTT assay. The following applies: read-out: Activity. Type of series: cell-based.
A short description of series [4]: Cytotoxicity against mouse J774 cells assessed as cell viability at 1 ug/ml by MTT assay. Type of series: cell-based. The following applies: read-out: Activity.
The nature of series [5]: Cytotoxicity against mouse J774 cells infected with Mycobacterium bovis BCG assessed as cell viability at 100 ug/ml by MTT assay. Type of series: cell-based. The following applies: read-out: Activity.
A short description of series [6]: Cytotoxicity against mouse J774 cells infected with Mycobacterium bovis BCG assessed as cell viability at 1 ug/ml by MTT assay. Type of series: cell-based. As to conditions: read-out: Activity.
The nature of series [7]: Cytotoxicity against mouse J774 cells infected with Mycobacterium bovis BCG assessed as cell viability at 10 ug/ml by MTT assay. It is filed as cell-based. As to conditions: read-out: Activity.

Converted amounts (≈) assume the structure as drawn.

For 11 compounds, MIC and viability results are on record in ChEMBL document CHEMBL1156096, “Synthesis and antitubercular activity of 7-chloro-4-quinolinylhydrazones derivatives” (Bioorg Med Chem Lett, 2009).

Take `Fc1cccc(/C=N/Nc2ccnc3cc(Cl)ccc23)c1`: the MIC in series [1] is above 100 µg/mL.
`Clc1ccc2c(N/N=C/c3cccc(Br)c3)ccnc2c1`: the viability at 100 ug/ml in series [2] was determined as 3%. Moreover, the viability at 10 ug/ml in series [3] came to 60%. This compound registered an MIC in series [1] of 3.12 µg/mL (≈ 8.65 µM). For the same compound, in series [4], the viability at 1 ug/ml worked out at 88%.
In turn, `O=[N+]([O-])c1ccccc1/C=N/Nc1ccnc2cc(Cl)ccc12` came in with an MIC in series [1] above 100 µg/mL.
On the same count and under the same terms, with `Oc1cccc(/C=N/Nc2ccnc3cc(Cl)ccc23)c1` the figure was above 100 µg/mL; with `O=[N+]([O-])c1cccc(/C=N/Nc2ccnc3cc(Cl)ccc23)c1`, above 100 µg/mL; with `N#Cc1ccc(/C=N/Nc2ccnc3cc(Cl)ccc23)cc1`, above 100 µg/mL.
On the same count and under the same terms, next, `Clc1ccc2c(N/N=C/c3ccccc3Br)ccnc2c1`: above 100 µg/mL.
For `Clc1ccc2c(N/N=C/c3ccc(Br)cc3)ccnc2c1`, the viability at 100 ug/ml came out at 85% in series [5] and 91% in series [2]. For the same compound, the viability at 1 ug/ml in series [6] and in series [4] was 100% in each case. The viability at 10 ug/ml in series [7] and in series [3] was 100% in each case. The MIC in series [1] turned out to be 2.5 µg/mL (≈ 6.93 µM).
Regarding `O=[N+]([O-])c1ccc(/C=N/Nc2ccnc3cc(Cl)ccc23)cc1`, in series [1], the minimum inhibitory concentration (MIC) is above 100 µg/mL.
On the same count and under the same terms, next, `Clc1ccc2c(N/N=C/c3ccccc3)ccnc2c1`: above 100 µg/mL.
With `CC[C@@H](CO)NCCN[C@@H](CC)CO` [ETHAMBUTOL], in series [1], the minimal inhibitory concentration (MIC) worked out at 3.25 µg/mL (≈ 15.9 µM). In addition, the viability at 1 ug/ml in series [4] was determined as 100%.
